The values that follow come from paper PMC9227119, “Hydroxybenzoic Acids as Acetylcholinesterase Inhibitors: Calorimetric and Docking Simulation Studies” (Nutrients, 2022).

≈ marks a conversion by molar mass, not a printed value. Where “and” joins values, the source holds several entries; their conditions need not be identical. Equal entries are not always repeated. Where two headings read alike, the source gives them in different places.

Experiment [1] has as its target T1, Acetylcholinesterase from Electrophorus electricus (electric eel) (AChE) (Electrophorus electricus, UniProt O42275). The experiment in a line: ITC: titration of AChE with ligand, complexation (association) constant. It counts as binding. To be noted: for Ka × 10^3 (binding/association constant, ITC): 36.6 °C, one binding site model; for Ka (association constant, ITC): restated in L/mol. For orientation: ITC needs no label: the signal is the heat of the interaction.

Experiment [2] deals with T1, Acetylcholinesterase from Electrophorus electricus (electric eel) (AChE). The experiment is classed as biochemical. To be noted: 36.6 °C; for % Inhibition (inhibitory activity, ITC): AChE 1 μmol/L in cell, syringe hydroxybenzoic acid 0.5 mmol/L and ACh 1 mmol/L, mean ± SD of three; for IC50 (ITC): ligand amount per AChE monomer that inhibits ACh hydrolysis by 50%.
The test system of experiment [3] is AChE. To be noted: colorimetric method; cited from earlier work.
For experiment [4], the system named is AChE. To be noted: AChE inhibition; literature result, no reference given; cited from earlier work.
The test system of experiment [5] is AChE. To be noted: inhibitory activity for AChE; cited from earlier work.
The subject of experiment [6] is AChE. Also noted: method as in PMID 18274286. To be noted: AChE inhibition; cited from earlier work.
In experiment [7] the test system is AChE. To be noted: mice administered with streptozotocin; dose-dependent; cited from earlier work.
In experiment [8] the test system is AChE. To be noted: anti-AChE activity; cited from earlier work.
Experiment [9] has as its system AChE. More on the design: method as in PMID 23229229. To be noted: AChE inhibition; cited from earlier work.

T1 sequence (O42275 24-633): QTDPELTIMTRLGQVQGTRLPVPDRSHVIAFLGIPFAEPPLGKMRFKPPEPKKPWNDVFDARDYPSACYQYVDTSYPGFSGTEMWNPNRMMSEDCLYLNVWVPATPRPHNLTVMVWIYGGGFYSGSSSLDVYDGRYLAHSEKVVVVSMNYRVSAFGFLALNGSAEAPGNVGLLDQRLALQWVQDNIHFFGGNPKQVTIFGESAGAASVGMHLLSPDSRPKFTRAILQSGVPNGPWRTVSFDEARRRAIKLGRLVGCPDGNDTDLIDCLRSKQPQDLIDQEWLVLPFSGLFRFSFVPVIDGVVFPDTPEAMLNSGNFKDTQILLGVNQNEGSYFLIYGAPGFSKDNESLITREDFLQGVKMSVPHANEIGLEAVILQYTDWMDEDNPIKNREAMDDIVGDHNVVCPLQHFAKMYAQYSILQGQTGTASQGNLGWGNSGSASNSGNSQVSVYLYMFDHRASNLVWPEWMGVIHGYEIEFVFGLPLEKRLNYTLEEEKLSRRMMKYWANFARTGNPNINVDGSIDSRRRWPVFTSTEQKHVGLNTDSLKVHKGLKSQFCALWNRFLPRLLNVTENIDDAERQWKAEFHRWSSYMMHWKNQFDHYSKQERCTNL

`O=C(O)c1ccccc1O` [salicylic acid]: in experiment [1], the dissociation constant Kd (in general, a measure of binding affinity in units of concentration) was 19.4 µM and the “Ka × 10^3 (binding/association constant, ITC)” value is given as 51.55 × 10^3 L/mol. Also, in experiment [2], the “% Inhibition (inhibitory activity, ITC)” value came to 82.30 ± 4.77% and the “IC50 (ITC)” value was found to be 6.07 ± 0.35 μmol/μmol AChE. Further, the “IC50 (ITC)” value in experiment [2] (listed as Salicylic acid) came out at 6.07 μmol/μmol AChE. Besides, in the experiment on AChE [3], the “Ellman’s Assay (inhibitory activity as eserine equivalent)” value was 11.8 ± 0.4 nmol/L of Eserine.
Take `O=C(O)c1ccc(O)cc1` [4-hydroxybenzoic acid]: in the experiment on AChE [3], the “Ellman’s Assay (inhibitory activity as eserine equivalent)” value is on record as 3.7 ± 0.3 nmol/L of Eserine.
With `O=C(O)Cc1cc(O)ccc1O` [homogentisic acid], in experiment [1], binding was put at a Kd of 8.55 µM and the “Ka × 10^3 (binding/association constant, ITC)” value was 116.92 × 10^3 L/mol. Also, in [2], the “% Inhibition (inhibitory activity, ITC)” value turned out to be 68.78 ± 0.88%; the “IC50 (ITC)” value was 7.16 μmol/μmol AChE and 7.16 ± 0.09 μmol/μmol AChE. In addition, the “Ellman’s Assay (inhibitory activity as eserine equivalent)” value in the experiment on AChE [3] is 9.6 ± 2.4 nmol/L of Eserine.
Regarding `COc1cc(C=O)ccc1O` [vanillin], the half-inhibitory concentration (IC50) (as a rule, the concentration at which inhibition is half-maximal) with AChE [4] is 37 µM.
As to `O=C(O)c1ccc(O)c(O)c1` [protocatechuic acid], in experiment [1], the Kd is 17.4 µM and the “Ka × 10^3 (binding/association constant, ITC)” value is listed as 57.63 × 10^3 L/mol. In [2], the “% Inhibition (inhibitory activity, ITC)” value is 77.15 ± 5.16% and the “IC50 (ITC)” value came out at 6.50 ± 0.43 μmol/μmol AChE. Further, the “IC50 (ITC)” value in [2] (listed as Protocatechic acid) came to 6.50 μmol/μmol AChE.
With `CCOC(=O)c1ccc(O)cc1` [ethyl 4-hydroxybenzoate], in [1], the Kd was 48.7 µM and the “Ka × 10^3 (binding/association constant, ITC)” value is recorded as 20.53 × 10^3 L/mol. For the same molecule, in experiment [2], the “% Inhibition (inhibitory activity, ITC)” value was found to be 15.93 ± 0.75% and the “IC50 (ITC)” value came to 31.38 ± 1.48 μmol/μmol AChE. Further, the “IC50 (ITC)” value in experiment [2] (listed as ethylhydroxybenzoate) is on record as 31.38 μmol/μmol AChE. Moreover, the “Ellman’s Assay (inhibitory activity as eserine equivalent)” value in the experiment with AChE [3] is listed as 28.1 ± 0.1 nmol/L of Eserine.
Turning to `O=C(O)c1cccc(O)c1` [3-hydroxybenzoic acid], in experiment [1], the Kd was 15.6 µM and the “Ka × 10^3 (binding/association constant, ITC)” value was 64.10 × 10^3 L/mol. In [2], the “% Inhibition (inhibitory activity, ITC)” value is 74.80 ± 8.63%; the “IC50 (ITC)” value was 6.68 μmol/μmol AChE and 6.68 ± 0.77 μmol/μmol AChE. Moreover, the “Ellman’s Assay (inhibitory activity as eserine equivalent)” value in the experiment with AChE [3] is 2.6 ± 0.1 nmol/L of Eserine.
Turning to `CCOC(=O)c1ccc(O)c(OC)c1` [ethyl vanillate], in experiment [1], the affinity, expressed as Kd, was 25.8 µM and the “Ka × 10^3 (binding/association constant, ITC)” value is 38.76 × 10^3 L/mol. Also, in experiment [2], the “% Inhibition (inhibitory activity, ITC)” value is 14.60 ± 2.33%; the “IC50 (ITC)” value was 34.19 μmol/μmol AChE and 34.19 ± 5.46 μmol/μmol AChE. Also, the “Ellman’s Assay (inhibitory activity as eserine equivalent)” value in the experiment on AChE [3] is 33.5 ± 2.5 nmol/L of Eserine.
In the case of `CCN(C)C(=O)Oc1cccc([C@H](C)N(C)C)c1` [rivastigmine], the half-maximal inhibitory concentration (IC50) in the experiment on AChE [5] was […].
Regarding `O=C(O)c1cc(O)c(O)c(O)c1` [gallic acid], in [1], the affinity, expressed as Kd, was 19.4 µM and the “Ka × 10^3 (binding/association constant, ITC)” value is reported as 51.55 × 10^3 L/mol. In experiment [2], the “% Inhibition (inhibitory activity, ITC)” value is given as 53.70 ± 2.86%; the “IC50 (ITC)” value is 9.32 μmol/μmol AChE and 9.32 ± 0.50 μmol/μmol AChE. Moreover, the IC50 in the experiment on AChE [6] is 5.89 µM. Further, the “Ellman’s Assay (inhibitory activity as eserine equivalent)” value in the experiment on AChE [3] was 3.8 ± 0.1 nmol/L of Eserine.
On to `COc1cc(C(=O)O)ccc1O` [vanillic acid], for which the “AChE activity in mice” value in the experiment on AChE [7] was “reduced”. In experiment [1], the Kd was 19.1 µM and the “Ka × 10^3 (binding/association constant, ITC)” value is recorded as 52.36 × 10^3 L/mol. Moreover, in [2], the “% Inhibition (inhibitory activity, ITC)” value is recorded as 73.70 ± 1.90%; the “IC50 (ITC)” value is 6.79 μmol/μmol AChE and 6.79 ± 0.18 μmol/μmol AChE. Also, the “Ellman’s Assay (inhibitory activity as eserine equivalent)” value in the experiment on AChE [3] is given as 3.2 ± 0.0 nmol/L of Eserine.
Regarding `O=C(O)C(=O)Cc1ccc(O)cc1` [4-hydroxyphenylpyruvic acid], in [1], the Kd is 3.95 µM; the “Ka × 10^3 (binding/association constant, ITC)” value is on record as 253 × 10^3 L/mol; the “Ka (association constant, ITC)” value was 253000 L/mol. Further, in experiment [2], the “% Inhibition (inhibitory activity, ITC)” value is reported as 84.93 ± 5.82%; the “IC50 (ITC)” value is 5.89 μmol/μmol AChE and 5.89 ± 0.40 μmol/μmol AChE. Moreover, the “Ellman’s Assay (inhibitory activity as eserine equivalent)” value in the experiment with AChE [3] is given as 23.6 ± 1.5 nmol/L of Eserine.
Regarding `COc1ccc2c3c1O[C@H]1C[C@@H](O)C=C[C@@]31CCN(C)C2` [calantamine, galantamine], the IC50 in the experiment with AChE [5] was […].
For `COc1cc(C(=O)O)cc(OC)c1O` [syringic acid], in the experiment with AChE [8], the IC50 is 18.73 µg/mL (≈ 94.5 µM). Besides, in experiment [1], binding was characterised by a dissociation constant (Kd) of 5.46 µM; the “Ka × 10^3 (binding/association constant, ITC)” value is given as 183.15 × 10^3 L/mol; the “Ka (association constant, ITC)” value is 180000 L/mol. Further, in [2], the “% Inhibition (inhibitory activity, ITC)” value is reported as 71.80 ± 3.12% and the “IC50 (ITC)” value is reported as 6.96 ± 0.30 μmol/μmol AChE. The “IC50 (ITC)” value in experiment [2] (listed as Syringic acid) is recorded as 6.96 μmol/μmol AChE. Further, the “Ellman’s Assay (inhibitory activity as eserine equivalent)” value in the experiment with AChE [3] is 5.4 ± 0.1 nmol/L of Eserine.
Regarding `COc1cc(CC(=O)O)ccc1O` [homovanillic acid], in experiment [1], the Kd is 7.35 µM and the “Ka × 10^3 (binding/association constant, ITC)” value was 136.05 × 10^3 L/mol. For the same molecule, in experiment [2], the “% Inhibition (inhibitory activity, ITC)” value amounted to 77.50 ± 2.59%; the “IC50 (ITC)” value was 6.45 μmol/μmol AChE and 6.45 ± 0.22 μmol/μmol AChE. Further, the “Ellman’s Assay (inhibitory activity as eserine equivalent)” value in the experiment with AChE [3] is 21.8 ± 0.4 nmol/L of Eserine.
For the molecule `O=C(O)c1cc(O)ccc1O` [gentisic acid], in experiment [1], binding was put at a Kd of 13 µM and the “Ka × 10^3 (binding/association constant, ITC)” value was 76.92 × 10^3 L/mol. In experiment [2], the “% Inhibition (inhibitory activity, ITC)” value is listed as 62.38 ± 6.39%; the “IC50 (ITC)” value is 8.02 μmol/μmol AChE and 8.02 ± 0.82 μmol/μmol AChE. Moreover, the “Ellman’s Assay (inhibitory activity as eserine equivalent)” value in the experiment on AChE [3] is on record as 68.6 ± 0.7 nmol/L of Eserine.
In the case of `O=C(O)Cc1ccc(O)cc1` [4-hydroxyphenylacetic acid], in experiment [1], the Kd was 15.1 µM and the “Ka × 10^3 (binding/association constant, ITC)” value is 66.23 × 10^3 L/mol. In addition, in experiment [2], the “% Inhibition (inhibitory activity, ITC)” value is on record as 80.20 ± 8.04%; the “IC50 (ITC)” value was 6.24 μmol/μmol AChE and 6.24 ± 0.63 μmol/μmol AChE.
For `C[C@H](Cc1ccc(O)c(O)c1)[C@@H](C)Cc1ccc(O)c(O)c1` [nordihydroguaiaretic acid], in experiment [1], binding was characterised by a dissociation constant (Kd) of 17.3 µM and the “Ka × 10^3 (binding/association constant, ITC)” value is 57.80 × 10^3 L/mol. In experiment [2], the “% Inhibition (inhibitory activity, ITC)” value is on record as 77.20 ± 4.84%; the “IC50 (ITC)” value was 6.47 μmol/μmol AChE and 6.47 ± 0.41 μmol/μmol AChE. Besides, the IC50 with AChE [9] was 46.2 µM. Further, in the experiment on AChE [3], the “Ellman’s Assay (inhibitory activity as eserine equivalent)” value is listed as 37.3 ± 1.2 nmol/L of Eserine.
For the molecule `COC(=O)c1cc(OC)c(O)c(OC)c1` [methyl syringate], in [1], the Kd is 6.48 µM; the “Ka × 10^3 (binding/association constant, ITC)” value is on record as 154.32 × 10^3 L/mol; the “Ka (association constant, ITC)” value came out at 154000 L/mol. In addition, in experiment [2], the “% Inhibition (inhibitory activity, ITC)” value was 90.93 ± 7.13%; the “IC50 (ITC)” value is 5.50 μmol/μmol AChE and 5.50 ± 0.43 μmol/μmol AChE. Moreover, the “Ellman’s Assay (inhibitory activity as eserine equivalent)” value in the experiment with AChE [3] is 9.1 ±1.6 nmol/L of Eserine.
